Test results reported in US20240368151A1, “NOVEL ERGOLINES AND METHODS OF TREATING MOOD DISORDERS” (priority 2021, published 2024).

Columns and labels:
5-HT1B receptor = 5-HT1B receptor (Homo sapiens (Human), UniProt P28222); experiment: cAMP accumulation agonist assay at 5-HT1B; type: cell-based
Description: Functional Assay at 5-HT1B. Agonist activity at 5-HT1B was determined using a cAMP accumulation protocol at WuXi AppTec (Hong Kong) Limited according to their standard protocols. Briefly, stably transfected cells were plated in an OptiPlate-384 well plate, incubated at RT for 60 mins, and cAMP standard solution (800 nM, 10 μL) was added to the blank well. Then, 10 μL detection reagent was added to each well, the plate incubated for 60 mins at RT, and the plate read using EnVision.

[1] = Metabolic stability in mouse liver microsomes (MLM); type: in vitro ADME; conditions: mouse, pooled mouse liver microsomes, pH 7.4, MLM (CD-1), NADPH
Text: MLM Stability Pooled MLM from CD-1 mice (BIOIVT M00501) were used.

[2] = Metabolic stability in rat liver microsomes (RLM); type: in vitro ADME; conditions: both sexes, rat, pooled rat liver microsomes, pH 7.4, NADPH
5-HT2B receptor = 5-HT2B receptor (Homo sapiens (Human), UniProt P41595); experiment: FLIPR Ca^2+ flux agonist assay at 5-HT2B; type: cell-based; conditions: HEK293
Description: (§1) Functional Assays at 5-HT2A, 5-HT2B, and 5-HT1A. Agonist activity at 5-HT2A, 5-HT2B, and 5-HT1A receptors was determined using a FLIPR Ca^2+ flux assay at WuXi AppTec (Hong Kong) Limited according to their standard protocols. Briefly, stably transfected cells expressing the receptor of interest (HEK293 for 5-HT2A and 5-HT2B; CHO cells for 5-HT1A) were grown and plated in a 384 well plate and incubated at 37° C. and 5% CO2 overnight. A solution of 250 mM probenecid in 1 mL FLIPR assay buffer was prepared fresh. This was combined with a fluorescent dye (Fluo-4 Direct™) to make a final assay concentration of 2.5 mM. […] The fluorescent dye was then added to the assay plate along with assay buffer to a final volume of 40 μL. The cell plate was incubated for 50 min at 37° C. and 5% CO2 and placed into the FLIPR Tetra along with the compound plate. 10p L of references and compounds were then transferred from the compound plate into the cell plate and the fluorescent signal was read.

5-HT2A receptor [3] = biological target: T1, 5-HT2A receptor (Homo sapiens (Human), UniProt P28223); type: cell-based; conditions: Ca^2+ flux, HEK293
Description: as §1

5-HT1A receptor = 5-HT1A receptor (Homo sapiens (Human), UniProt P08908); experiment: FLIPR Ca^2+ flux agonist assay at 5-HT1A; type: cell-based; conditions: CHO cells
Description: as §1

[4] = Metabolic stability in human liver microsomes (HLM); type: in vitro ADME; conditions: both sexes, human, pooled human liver microsomes, pH 7.4, NADPH
Text: HLM Stability. Pooled HLM from adult male and female donors (Corning 452117) were used.

5-HT2A receptor [5] = biological target: T1, 5-HT2A receptor; type: cell-based; conditions: beta-arrestin recruitment
Description: The degree of arrestin bias varied substantially across the other compounds tested as well.
Arrestin Functional Assay at 5-HT2A. Recruitment of beta-arrestin was determined using a PathHunter assay at Eurofins DiscoverX (Fremont, CA) according to their standard protocols. PathHunter GPCR beta-arrestin assays take advantage of DiscoverX's proprietary Enzyme Fragment Complementation technology. The GPCR is fused in frame with a small enzyme donor fragment ProLink™ (PK) and co-expressed in cells stably expressing a fusion protein of beta-arrestin and the larger, N-terminal deletion mutant of beta-galactosidase. Activation of the GPCR (5-HT2A receptor in this case) stimulates binding of beta-arrestin to the PK-tagged GPCR and forces complementation of the two enzyme fragments, resulting in the formation of an active beta-galactosidase enzyme. This interaction leads to an increase in enzyme activity that can be measured using chemiluminescent PathHunter Detection Reagents. Briefly, PathHunter cells expressing 5-HT2A receptors were seeded in a volume of 20 μL into 384-well plates and incubated at 37° C. for the appropriate time prior to testing. […] Plates were then imaged on a microplate reader and the agonist activity was calculated using the following formula: % Activity=100%×(mean RLU of test sample−mean RLU of vehicle control)/(mean MAX control ligand−mean RLU of vehicle control), where RLU=relative light units.

human 5-HT2C receptor = human 5-HT2C receptor (Homo sapiens (Human), UniProt P28335); type: cell-based; conditions: Ca^2+ flux
C57BL/6 mice = experiment: Mouse head twitch response (HTR) assay; type: in vivo; conditions: mouse HTR, SC; for # HTR at Most Efficacious Dose / Emax (95% CI): 20 min observation; for Emax (95% CI): curve fit
Description: Agonists of the 5-HT2A receptor are well known to induce this effect in rodents and the potency of this HTR is correlated with hallucinogenic potency in humans.
Animals. Adult male C57BL/6 mice, aged 6-8 weeks (body weight 20-25 g) were used in this experiment. Animals were housed under controlled temperatures and 12-hour light/dark cycles (lights on between 07:00-19:00 h), with ad libitum food and water. This study was carried out in strict accordance with the requirements of the Committee for the Purpose of Control and Supervision of Experiments on Animals (CPCSEA), India. All efforts were made to minimize suffering.
Drugs and Drug Administration. Compound 1 was synthesized as described above. It was administered subcutaneously (SC) dissolved in saline vehicle at a volume of 10 mL/kg. Five doses were tested, with n=6 animals/group. Doses were calculated on the basis of the freebase.
Procedure. Mice were administered one dose of the drug and immediately placed into a small open field for behavioral observation. Animals were observed continuously for 20 mins and the number of head twitches (HTs) were counted by an observer blind to the treatment condition.
Statistical Analysis. The data points shown are the mean±standard error of the mean (SEM). Analysis was performed using GraphPad Prism 6. Curves were fit using a non-linear gaussian distribution to calculate ED50 and Emax values.
Additional disclosed compounds were tested in the mouse head twitch response (HTR) assay according to the procedure described in Example 34. […] Lastly, compounds with much larger benzyl and phenethyl substituents on the amine nitrogen (e.g., 10 and 11) were low efficacy in this assay, consistent with their lower maximal efficacy in the arrestin functional assay (see Example 32).

5-HT2B receptor, sequence (P41595 whole entry, looked up): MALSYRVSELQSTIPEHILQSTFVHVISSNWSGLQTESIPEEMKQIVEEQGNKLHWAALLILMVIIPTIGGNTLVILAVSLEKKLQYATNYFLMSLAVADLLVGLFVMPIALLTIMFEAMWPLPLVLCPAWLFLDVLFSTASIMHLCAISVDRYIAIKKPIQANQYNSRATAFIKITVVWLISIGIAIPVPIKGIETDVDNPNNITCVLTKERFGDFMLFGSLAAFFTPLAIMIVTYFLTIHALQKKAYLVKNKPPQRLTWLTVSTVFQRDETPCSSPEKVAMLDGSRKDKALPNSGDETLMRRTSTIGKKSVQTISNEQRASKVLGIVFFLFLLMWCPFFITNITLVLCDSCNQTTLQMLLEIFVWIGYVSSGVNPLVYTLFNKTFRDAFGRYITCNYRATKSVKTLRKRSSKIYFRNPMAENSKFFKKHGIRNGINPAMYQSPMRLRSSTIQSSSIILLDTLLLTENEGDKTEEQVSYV
human 5-HT2C receptor, sequence (P28335 33-458 limits assumed): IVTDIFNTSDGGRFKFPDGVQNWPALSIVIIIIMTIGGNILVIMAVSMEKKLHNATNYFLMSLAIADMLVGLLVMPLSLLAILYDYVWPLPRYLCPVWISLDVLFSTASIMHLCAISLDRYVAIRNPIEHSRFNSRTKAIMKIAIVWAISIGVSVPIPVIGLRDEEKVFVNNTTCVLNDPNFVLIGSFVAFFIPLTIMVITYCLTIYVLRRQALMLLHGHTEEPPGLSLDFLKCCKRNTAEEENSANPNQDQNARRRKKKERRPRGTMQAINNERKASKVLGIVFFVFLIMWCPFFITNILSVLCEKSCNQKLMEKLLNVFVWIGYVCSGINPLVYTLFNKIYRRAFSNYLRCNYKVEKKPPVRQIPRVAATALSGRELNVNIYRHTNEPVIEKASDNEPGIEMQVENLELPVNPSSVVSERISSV
5-HT1B receptor, sequence (P28222 whole entry, looked up): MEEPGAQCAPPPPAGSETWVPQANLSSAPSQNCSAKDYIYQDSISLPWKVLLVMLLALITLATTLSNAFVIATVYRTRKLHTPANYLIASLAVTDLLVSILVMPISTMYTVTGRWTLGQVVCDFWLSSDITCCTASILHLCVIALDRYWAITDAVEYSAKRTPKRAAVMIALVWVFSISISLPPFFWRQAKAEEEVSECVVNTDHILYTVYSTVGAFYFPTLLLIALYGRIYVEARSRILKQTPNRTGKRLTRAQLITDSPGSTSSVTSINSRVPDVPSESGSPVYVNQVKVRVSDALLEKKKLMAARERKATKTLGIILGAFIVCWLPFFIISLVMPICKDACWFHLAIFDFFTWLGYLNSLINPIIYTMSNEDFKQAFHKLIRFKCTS

Compound	5-HT1B % Act @ Max Dose (5-HT1B receptor) [%]	half-life at 1 μM [1] [min]	half-life at 1 μM [2] [min]	5-HT2B % Act @ Max Dose (5-HT2B receptor) [%]	5-HT2A % Act @ Max Dose (5-HT2A receptor [3]) [%]	5-HT1A % Act @ Max Dose (5-HT1A receptor) [%]	half-life at 1 μM [4] [min]	5-HT2A Arrestin % Act @ Max Dose (5-HT2A receptor [5]) [%]	agonist type in the 5-HT2A arrestin recruitment assay, in words (5-HT2A receptor [5])	5-HT2C % Act @ Max Dose (human 5-HT2C receptor) [%]	Most Efficacious Dose (C57BL/6 mice)	# HTR at Most Efficacious Dose (C57BL/6 mice)	Emax (95% CI) (C57BL/6 mice)
CCN(CC)C(=O)[C@@H]1C=C2c3cccc4[nH]cc(c34)C[C@H]2N(Cc2ccc(OC)cc2)C1 [Compound 19, (6aR,9R)-N,N-diethyl-7-(4-methoxybenzyl)-4,6,6a,7,8,9-hexahydroindolo[4,3-fg]quinoline-9-carboxamide]	71.08	7.2	10	2.44	70.54	−0.65	16.8	–	–	–	–	–	–
CC[C@@H](C)NC(=O)[C@@H]1C=C2c3cccc4[nH]cc(c34)C[C@H]2N(C)C1 [Int8, (6aR,9R)-N-((R)-sec-butyl)-7-methyl-4,6,6a,7,8,9-hexahydroindolo[4,3-fg]quinoline-9-carboxamide]	–	39.9	99.5	17.7	96.25	90.25	64.9	46.06	partial agonists	98.245	(1 mg/kg)	13.5	14.34
CCC(CC)NC(=O)[C@@H]1C=C2c3cccc4[nH]cc(c34)C[C@H]2N(C)C1 [Int14, (6aR,9R)-7-methyl-N-(pentan-3-yl)-4,6,6a,7,8,9-hexahydroindolo[4,3-fg]quinoline-9-carboxamide]	–	6.07	38	9.84	93.33	102.46	17.6	44.377	partial agonists	99.149	(1 mg/kg)	10.5	21.63
CCC[C@@H](C)NC(=O)[C@@H]1C=C2c3cccc4[nH]cc(c34)C[C@H]2N(C)C1 [Int17, (6aR,9R)-7-methyl-N-((R)-pentan-2-yl)-4,6,6a,7,8,9-hexahydroindolo[4,3-fg]quinoline-9-carboxamide]	–	8.25	27.9	25.49	91.47	113.04	15.9	38.809	partial agonists	102.19	(0.32 mg/kg)	–	4.96
